Results reported in PMC7263589, “Integration of phage and yeast display platforms: A reliable and cost effective approach for binning of peptides as displayed on-phage” (PLoS ONE, 2020).
Bridge positions count the residues as written; N and C are the ends. Ends that are not written are not given here. Peptide text beside a SMILES is read from it.

T1: IL-23 (Homo sapiens, UniProt P29460+Q9NPF7)
T1 construct: made in house
T1 sequence (Q9NPF7 20-189): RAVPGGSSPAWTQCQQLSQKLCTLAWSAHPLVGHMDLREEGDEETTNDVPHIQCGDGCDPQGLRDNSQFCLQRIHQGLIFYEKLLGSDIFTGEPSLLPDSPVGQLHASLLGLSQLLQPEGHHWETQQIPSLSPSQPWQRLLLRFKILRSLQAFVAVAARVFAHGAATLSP
T1 sequence (P29460 23-328): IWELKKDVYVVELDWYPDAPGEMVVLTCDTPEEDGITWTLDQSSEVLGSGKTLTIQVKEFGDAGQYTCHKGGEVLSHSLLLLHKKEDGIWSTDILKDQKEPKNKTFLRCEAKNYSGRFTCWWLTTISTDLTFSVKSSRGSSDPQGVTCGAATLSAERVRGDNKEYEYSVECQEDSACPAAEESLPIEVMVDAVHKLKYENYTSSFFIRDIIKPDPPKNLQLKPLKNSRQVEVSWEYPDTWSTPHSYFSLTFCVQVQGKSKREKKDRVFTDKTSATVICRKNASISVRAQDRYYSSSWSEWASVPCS

T2: IL-23:IL-23R (Homo sapiens, UniProt P29460+Q9NPF7)
T2 construct: made in house
T2 sequence (Q9NPF7 20-189): T1 sequence (Q9NPF7 20-189)
T2 sequence (P29460 23-328 partner): T1 sequence (P29460 23-328)

T3: IL-23 p40 subunit (as in the crystallized IL-23) (human, UniProt P29460 23-328, Two N-Acetylglucosamine sugars modeled at Asn200)
T3 construct: Interleukin-12 subunit beta (p40), human; Chain of Wm1, written on its own for the contacts seen in the structure
T3 sequence (looked up): T1 sequence (P29460 23-328)

T4: IL-23 (heterodimer of the p19 and p40 subunits), protein for crystallization (human, UniProt Q9NPF7 20-189; P29460 23-328, Two N-Acetylglucosamine sugars modeled at Asn200)
T4 construct: Interleukin-23 subunit alpha (p19), human; Interleukin-12 subunit beta (p40), human; attempts were made to limit glycosylation; Multiple flexible loops are missing from the model; also called hu IL-23
T4 sequence (looked up) 1: T1 sequence (Q9NPF7 20-189)
T4 sequence (looked up) 2: T1 sequence (P29460 23-328)

T5: IL-23-HIS (human, UniProt Q9NPF7 20-189; P29460 23-328)
T5 construct: IL-23 p19 subunit, human; IL-12/IL-23 p40 subunit, human; also called IL-23 only; IL-23 protein
T5 sequence (looked up) 1: T1 sequence (Q9NPF7 20-189)
T5 sequence (looked up) 2: T1 sequence (P29460 23-328)

B1: IL-23 p19 subunit (as in the crystallized IL-23) (natural protein, human, UniProt Q9NPF7 20-189, looked up)
chain: T1 sequence (Q9NPF7 20-189)
notes: Interleukin-23 subunit alpha (p19), human; Chain of Wm1, written on its own for the contacts seen in the structure
B2: peptide 23-652 (peptide)
peptide: DTLTKSFCYFGTWCQMYGST
modifications: disulfide 8-14
notes: selected from a cyclic peptide phage library against IL-23; residues 4-18 are ordered in the structure; also called FGT/FGL-motif containing peptide; source: synthetic peptide (CPC Scientific)
B3: IL-23R-Fc-AVI (Fc fusion, UniProt Q5VWK5 24-355, looked up)
chain: GITNINCSGHIWVEPATIFKMGMNISIYCQAAIKNCQPRKLHFYKNGIKERFQITRINKTTARLWYKNFLEPHASMYCTAECPKHFQETLICGKDISSGYPPDIPDEVTCVIYEYSGNMTCTWNAGKLTYIDTKYVVHVKSLETEEEQQYLTSSYINISTDSLQGGKKYLVWVQAANALGMEESKQLQIHLDDIVIPSAAVISRAETINATVPKTIIYWDSQTTIEKVSCEMRYKATTNQTWNVKEFDTNFTYVQQSEFYLEPNIKYVFQVRCQETGKRYWQPWSSLFFHKTPETVPQVTSKAFQHDTWNSGLTVASISTGHLTSDNRGDIG
notes: IL-23 receptor (IL-23R); also called IL-23R sensor

Assays:
[1] = target: T1, IL-23; test: SPR direct binding to captured IL-23-AVI (Biacore T200); details: IL-23-AVI captured on streptavidin chip, 25°C, 50 μl/min, 10 mM HEPES pH 7.5, 150 mM NaCl, 0.005% P20, 3% DMSO, 1:1 binding model, multi-cycle (single cycle kinetics for 23–652 and IL-23R), n = 1, 23–447 an estimate, read-out: ka
Protocol: SPR (Biacore T200, GE Healthcare) was used to determine binding constants of the peptides against IL-23 and their competitiveness to IL-23R. All SPR experiments were performed at 25°C with flow rate of 50 μl/min. Assay buffer used in direct binding experiment was 10 mM HEPES pH 7.5, 150 mM NaCl, 0.005% P20, and 3% DMSO. Assay buffer used in competition experiment was 10 mM HEPES pH 7.5, 150 mM NaCl, 0.005% P20, and 1% BSA. All peptides were reconstituted first in DMSO as 10 mM stocks and then diluted into assay buffer. The proteins used in direct binding and competition SPR are described in S1 Table in S1 File. For direct binding of peptides against IL-23, 2000–9000 RU of IL-23-AVI was captured to streptavidin sensor chips (GE Healthcare, Series S Sensor Chip SA, BR-1005-31). Dilution series with 3-fold increment were prepared for each peptide. Initially, all peptides were tested up to 30 μM. Concentration range for some were then lowered accordingly based on affinity or nuisance behavior at high concentrations. SPR “multi-cycle” type was used for peptides 23–644, 23–437, 23–441, 23–446, and 23–447. Each cycle consisted of 30s of analyte injection and then 60s of buffer flow to monitor dissociation. “Single cycle kinetics” (SCK) type was used for 23–652 due to their long dissociation half-lives. Each SCK cycle consisted of five 60s injections of sample in increasing concentration with a final 600s of dissociation. To study IL-23 and IL-23R interaction, 200–1000 RU of IL-23-AVI and IL-23R-Fc-AVI were captured to streptavidin sensor chip. Dilution series with 3-fold increment of IL-23R-FLAG-HIS and IL-23-HIS were run in SCK cycle type as described above except the final dissociation time were 60-300s. Sensorgrams from the entire titration series for each sample were fitted globally to extract binding kinetics and affinity using Biacore T200 Evaluation Software 2.0 (GE Healthcare) according to a 1:1 binding model. To identify IL-23 binders that can block receptor binding, a competition SPR was established. In each SPR cycle, fresh IL-23R was capture (<1000 RU) by injecting 10 μg/ml of IL-23R-Fc-AVI to a Protein-A flow cell at 10 μl/min flow rate for 30s. Analyte consisted of a mixture of 20 nM of IL-23 protein and a single concentration of peptide was then injected for 30s at 50 μl/min to observe IL-23 binding. Finally, the Protein-A surface was regenerated by 10 mM Glycine pH 1.5 for 30s at 30 μl/min. IL-23 at 20 nM without peptide, “IL-23 only”, was used as control to quantify IL-23 binding without blockage; while “cold” IL-23R was used as a positive control for blockage.

[2] = target: T2, IL-23:IL-23R; test: IL-23:IL-23R protein-protein interaction assay, AlphaLISA; type: biochemical; details: disruption of the complex formed by IL-23 and IL-23R
Protocol: For AlphaLISA assay, peptides at concentration of 10 mM were dissolved in DMSO and serial 3-fold dilutions were carried out using acoustic technology, dispensing peptides directly into the assay plate (ProxiPlate-384 Plus). The rest of the reagents were dissolved in assay buffer containing 25 mM HEPES pH 7.4, 150 mM NaCl, 0.02% Tween 20 and 0.1% BSA. IL-23-AVI was pre-incubated with peptide at the indicated concentrations for 30 min at room temperature. Then, FLAG-tagged IL-23R was added to the assay mix and incubated at room temperature for 1 hour. This was followed by addition of Streptavidin-coated donor beads and acceptor beads conjugated to anti-FLAG antibody. Final assay concentration of IL-23-AVI and FLAG-IL-23R were 1.5 nM and 3 nM, respectively. The assay plate was incubated for one additional hour at RT and read in an Envision plate reader. For TR-FRET assay, tested compounds were serially diluted in DMSO using an Echo acoustic and dispensed directly into the final assay plate. Final concentration of DMSO in the assay was 1%. Assays were performed by preincubation of the diluted compounds with IL-23R-FLAG for one hour at room temperature in assay buffer containing 25 mM HEPES, 150 mM NaCl, 0.02% Tween 20, 0.1% BSA; pH 7.4. Next, IL-23-AVI was added to the assay mix and incubated for 1 hour at room temperature. Finally, the detection reagents, Europium-labeled streptavidin and Anti-FLAG IgG conjugated to SureLight–Allophycocyanin were added and incubated overnight at room temperature. Then, assay microplates were read and values were collected as the ratio between fluorescence emission at 665 nm and 615 nm (665/615). The final values were expressed as a percentage of the DMSO treated controls. IC50 values were calculated by fitting the normalized data to a four parameter logistic equation.

[3] = target: T3, IL-23 p40 subunit (as in the …); test: crystal structure; IL-23:peptide mixture, 1:1 molar ratio, ~16 mg/mL; sitting-drop vapor diffusion at 8°C; 100 mM Hepes pH 7, 17% w/v PEG 3350, 150 mM potassium nitrate; 2.7 Å, space group P212121; details: both partners purified
[4] = target: T4, IL-23 (heterodimer of the p19 and p40 …); test: as above; details: both partners purified
[5] = target: T5, IL-23-HIS; test: SPR; competition SPR, 25°C; IL-23R-Fc-AVI (<1000 RU) captured on Protein-A; 20 nM IL-23 mixed with one concentration of peptide or cold IL-23R injected 30 s; 10 mM HEPES pH 7.5, 150 mM NaCl, 0.005% P20, 1% BSA; n = 1; details: both partners purified

| Molecule | kon [1] [M⁻¹ s⁻¹] | AlphaLISA potency [2] | other results |
| --- | --- | --- | --- |
| CC(C)C[C@@H]1NC(=O)[C@H](Cc2ccc(O)cc2)NC(=O)[C@H](Cc2ccc(O)cc2)NC(=O)[C@H](CC(C)C)NC(=O)[C@@H](NC(=O)[C@H](CCC(=O)O)NC(=O)[C@@H](N)CC(C)C)CSSC[C@@H](C(=O)N[C@@H](CC(=O)O)C(=O)N[C@@H](CC(N)=O)C(=O)O)NC(=O)[C@H](C(C)C)NC(=O)[C@H](CCCCN)NC(=O)[C@H](Cc2c[nH]c3ccccc23)NC(=O)[C@H](CCCNC(=N)N)NC1=O [23–447] (H-LECLYYLRWKVCDN-OH; disulfide 3-12) | 48300 | single digit micromolar |  |
| CC[C@H](C)[C@H](NC(=O)[C@H](CCC(=O)O)NC(=O)[C@H](CCCCN)NC(=O)[C@@H](NC(=O)[C@@H](N)Cc1ccccc1)[C@@H](C)O)C(=O)N[C@@H](CC(=O)O)C(=O)N[C@@H](CO)C(=O)N[C@@H](Cc1c[nH]c2ccccc12)C(=O)N[C@@H](Cc1c[nH]c2ccccc12)C(=O)N[C@@H](CC(C)C)C(=O)N[C@@H](CO)C(=O)N[C@@H](CC(C)C)C(=O)N[C@@H](CCSC)C(=O)N[C@@H](CO)C(=O)N[C@@H](CO)C(=O)O [23–437] (H-FTKEIDSWWLSLMSS-OH) | 178000 | single digit micromolar |  |
| CC[C@H](C)[C@H](NC(=O)[C@H](CCCCN)NC(=O)[C@@H](N)CCC(N)=O)C(=O)N[C@H](C(=O)N[C@@H](CCC(N)=O)C(=O)N[C@H]1CSSC[C@@H](C(=O)N[C@@H](CC(C)C)C(=O)N[C@@H](CC(C)C)C(=O)N[C@@H](CC(N)=O)C(=O)N[C@@H](CC(=O)O)C(=O)N[C@H](C(=O)O)C(C)C)NC(=O)[C@@H]2CCCN2C(=O)[C@H](Cc2ccc(O)cc2)NC(=O)[C@H]([C@@H](C)O)NC(=O)[C@H](Cc2c[nH]c3ccccc23)NC(=O)[C@H]([C@@H](C)CC)NC(=O)[C@H]([C@@H](C)CC)NC(=O)[C@H](Cc2ccc(O)cc2)NC(=O)[C@H](C(C)C)NC1=O)[C@@H](C)O [23–441] (H-QKITQCVYIIWTYPCLLNDV-OH; disulfide 6-15) | 190000 | single digit micromolar |  |
| B1 |  |  | binding result [3]: binds |
| B2 |  |  | binding result [4]: binds |
| B3 |  |  | binding result [5]: binds |
